According to patent US20030187007A1, “Inhibitors of protein kinase for the treatment of disease” (priority 2001, published 2003):

What was measured:
MOLT-4 = experiment: In vitro tumor cell efficacy test (SRB), Leukemia; type: cell-based; details: Homo sapiens, MOLT-4, Leukemia, 72 hours
SR = experiment: In vitro tumor cell efficacy test (SRB), Leukemia; type: cell-based; details: Homo sapiens, 72 hours
HOP-62 = type: cell-based; details: Homo sapiens, HOP-62, Non-Small Cell Lung Cancer, 72 hours
NCI-H23 = type: cell-based; details: Homo sapiens, NCI-H23, Non-Small Cell Lung Cancer, 72 hours
NCI-H522 = type: cell-based; details: Homo sapiens; NCI-H522, Non-Small Cell Lung Cancer, 72 hours
HCC-2998 = experiment: In vitro tumor cell efficacy test (SRB), Colon Cancer; type: cell-based; details: Homo sapiens, HCC-2998, Colon Cancer, 72 hours
HCT-116 = experiment: as above; type: cell-based; details: Homo sapiens; HCT-116, Colon Cancer, 72 hours
HCT-15 = experiment: as above; type: cell-based; details: Homo sapiens; HCT-15, Colon Cancer, 72 hours
SF-295 = experiment: In vitro tumor cell efficacy test (SRB), CNS Cancer; type: cell-based; details: Homo sapiens, SF-295, CNS Cancer, 72 hours
SF-539 = experiment: as above; type: cell-based; details: Homo sapiens; SF-539, CNS Cancer, 72 hours
SNB-19 = experiment: as above; type: cell-based; details: Homo sapiens, SNB-19, CNS Cancer, 72 hours
U251 = experiment: as above; type: cell-based; details: Homo sapiens, U-251, 72 hours
SK-MEL-2 = experiment: In vitro tumor cell efficacy test (SRB), Melonoma; type: cell-based; details: Homo sapiens, SK-MEL-2, Melonoma, 72 hours
SK-MEL-28 = experiment: In vitro tumor cell efficacy test (SRB), Melonoma; type: cell-based; details: Homo sapiens, SK-MEL-28, Melonoma, 72 hours
SK-MEL-5 = experiment: In vitro tumor cell efficacy test (SRB), Melonoma; type: cell-based; details: Homo sapiens, SK-MEL-5, Melonoma, 72 hours
UACC-257 = experiment: In vitro tumor cell efficacy test (SRB), Melonoma; type: cell-based; details: Homo sapiens, UACC-257, Melonoma, 72 hours
UACC-62 = experiment: In vitro tumor cell efficacy test (SRB), Melonoma; type: cell-based; details: Homo sapiens, UACC-62, Melonoma, 72 hours
OVCAR-4 = experiment: In vitro tumor cell efficacy test (SRB), Ovarian Cancer; type: cell-based; details: Homo sapiens, OVCAR-4, Ovarian Cancer, 72 hours
OVCAR-8 = experiment: as above; type: cell-based; details: Homo sapiens, OVCAR-8, Ovarian Cancer, 72 hours
A498 = experiment: In vitro tumor cell efficacy test (SRB), Renal Cancer; type: cell-based; details: Homo sapiens, 72 hours
ACHN = experiment: as above; type: cell-based; details: Homo sapiens, 72 hours
CAKI-1 = experiment: as above; type: cell-based; details: Homo sapiens, CAKI-1, Renal Cancer, 72 hours
RXF 393 = experiment: as above; type: cell-based; details: Homo sapiens, RXF 393, Renal Cancer, 72 hours
TK-10 = experiment: as above; type: cell-based; details: Homo sapiens; TK-10, Renal Cancer, 72 hours
UO-31 = experiment: as above; type: cell-based; details: Homo sapiens, UO-31, Renal Cancer, 72 hours
DU-145 = experiment: In vitro tumor cell efficacy test (SRB), Prostate Cancer; type: cell-based; details: Homo sapiens; DU-145, Prostate Cancer, 72 hours
MCF7 = experiment: In vitro tumor cell efficacy test (SRB), Breast Cancer; type: cell-based; details: Homo sapiens, 72 hours
NCI/ADR-RES = experiment: as above; type: cell-based; details: Homo sapiens, 72 hours
HS 578T = experiment: as above; type: cell-based; details: Homo sapiens, 72 hours
MDA-MB-435 = experiment: as above; type: cell-based; details: Homo sapiens, MDA-MB-435, Breast Cancer, 72 hours
BT-549 = experiment: as above; type: cell-based; details: Homo sapiens; BT-549, Breast Cancer, 72 hours
T-47D = experiment: as above; type: cell-based; details: Homo sapiens, T47D, 72 hours
OVCAR-3 = experiment: In vitro tumor cell efficacy test (SRB), Ovarian Cancer; details: Homo sapiens, OVCAR-3, 72 h
[1] = read-out: Log (LC50) (the source's name) (converted)

Nc1nccc(-c2cc(-c3ccc(O)cc3)ccc2O)n1 [3-(2-Amino-pyrimidin-4-yl)-biphenyl-4,4′-diol]
GI50 (MOLT-4): 251 nM
CC50 (MOLT-4; [1]): > 100000 nM
GI50 (SR): 10 nM
CC50 (SR; [1]): > 100000 nM
GI50 (HOP-62): 79.4 nM
CC50 (HOP-62; [1]): 7940 nM
GI50 (NCI-H23): 251 nM
CC50 (NCI-H23; [1]): > 100000 nM
GI50 (NCI-H522): 200 nM
LC50 (NCI-H522): > 100000 nM
GI50 (HCC-2998): 1260 nM
CC50 (HCC-2998; [1]): > 100000 nM
GI50 (HCT-116): 158 nM
LC50 (concentration killing 50% of cells) (HCT-116): > 100000 nM
GI50 (HCT-15): 126 nM
LC50 (HCT-15): > 100000 nM
GI50 (SF-295): 251 nM
CC50 (SF-295; [1]): > 100000 nM
GI50 (SF-539): 200 nM
LC50 (SF-539): > 100000 nM
GI50 (SNB-19): 200 nM
CC50 (SNB-19; [1]): 20000 nM
GI50 (U251): 200 nM
CC50 (U251; [1]): > 100000 nM
GI50 (SK-MEL-2): 200 nM
CC50 (SK-MEL-2; [1]): 3160 nM
GI50 (SK-MEL-28): 251 nM
CC50 (SK-MEL-28; [1]): > 100000 nM
GI50 (SK-MEL-5): 100 nM
CC50 (SK-MEL-5; [1]): 20000 nM
GI50 (UACC-257): 1260 nM
CC50 (UACC-257; [1]): > 100000 nM
GI50 (UACC-62): 200 nM
CC50 (UACC-62; [1]): 12600 nM
GI50 (OVCAR-4): 316 nM
CC50 (OVCAR-4; [1]): > 100000 nM
GI50 (OVCAR-8): 200 nM
CC50 (OVCAR-8; [1]): > 100000 nM
GI50 (A498): 1580 nM
CC50 (A498; [1]): > 100000 nM
GI50 (ACHN): 251 nM
CC50 (ACHN; [1]): > 100000 nM
GI50 (CAKI-1): 398 nM
CC50 (CAKI-1; [1]): > 100000 nM
GI50 (RXF 393): 1000 nM
CC50 (RXF 393; [1]): 6310 nM
GI50 (TK-10): 2000 nM
LC50 (TK-10): > 100000 nM
GI50 (UO-31): 251 nM
CC50 (UO-31; [1]): > 100000 nM
GI50 (DU-145): 794 nM
LC50 (DU-145): > 100000 nM
GI50 (MCF7): 251 nM
LC50 (MCF7): > 100000 nM
GI50 (NCI/ADR-RES): 316 nM
CC50 (NCI/ADR-RES; [1]): > 100000 nM
GI50 (HS 578T): 398 nM
CC50 (HS 578T; [1]): > 100000 nM
GI50 (MDA-MB-435): 251 nM
CC50 (MDA-MB-435; [1]): > 100000 nM
GI50 (BT-549): 251 nM
LC50 (BT-549): > 100000 nM
GI50 (T-47D): 2000 nM
CC50 (T-47D; [1]): 50100 nM
CC50 (OVCAR-3; read-out: Log (LC50) (M) (converted)): > 0.0001 M
GI50 (OVCAR-3; read-out: log (GI50) (M) (converted)): 2.51e-07 M
